{
  "source": "patent US20110230504A1",
  "about": "“ALLEVIATING DISORDERS WITH COMBINING AGENTS THAT INCREASE EPOXYGENATED FATTY ACIDS AND AGENTS THAT INCREASE cAMP” (The Regents Of The University Of California Office Of …, priority 2008, published 2011)",
  "key": {"[1]": {"experiment": "Metabolic stability and pharmacokinetics of sEH inhibitors (statements)"}, "sEH": {"biological_target": "T1, sEH (Homo sapiens, UniProt P34913)", "T1 sequence (P34913 1-555)": "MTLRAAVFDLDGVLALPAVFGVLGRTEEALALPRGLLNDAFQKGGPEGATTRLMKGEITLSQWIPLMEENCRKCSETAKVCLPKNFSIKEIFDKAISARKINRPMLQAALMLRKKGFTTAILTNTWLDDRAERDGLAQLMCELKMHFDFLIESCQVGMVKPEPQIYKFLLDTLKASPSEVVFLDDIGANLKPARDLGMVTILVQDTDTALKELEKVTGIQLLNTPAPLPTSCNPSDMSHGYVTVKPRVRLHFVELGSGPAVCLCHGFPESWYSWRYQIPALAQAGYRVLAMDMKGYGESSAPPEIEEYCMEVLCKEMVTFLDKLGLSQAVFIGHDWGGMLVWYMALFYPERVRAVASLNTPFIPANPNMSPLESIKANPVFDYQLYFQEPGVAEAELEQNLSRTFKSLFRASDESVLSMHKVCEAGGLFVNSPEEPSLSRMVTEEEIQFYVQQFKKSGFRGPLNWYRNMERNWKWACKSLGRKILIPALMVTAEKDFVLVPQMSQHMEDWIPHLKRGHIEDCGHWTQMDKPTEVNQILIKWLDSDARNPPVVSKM", "experiment": "Testing as sEH inhibitors (assay not specified)", "type": "biochemical", "description": "Any of a number of standard assays for determining epoxide hydrolase activity can be used to determine inhibition of sEH. For example, suitable assays are described in Gill, et al., Anal Biochem 131:273-282 (1983); and Borhan, et al., Analytical Biochemistry 231:188-200 (1995)). Suitable in vitro assays are described in Zeldin et al., J. Biol. Chem. 268:6402-6407 (1993). Suitable in vivo assays are described in Zeldin et al., Arch Biochem Biophys 330:87-96 (1996). Assays for epoxide hydrolase using both putative natural substrates and surrogate substrates have been reviewed (see, Hammock, et al. In: Methods in Enzymology, Volume III, Steroids and Isoprenoids, Part B, (Law, J. H. and H. C. Rilling, eds. 1985), Academic Press, Orlando, Fla., pp. 303-311 and Wixtrom et al., In: Biochemical Pharmacology and Toxicology, Vol. 1: Methodological Aspects of Drug Metabolizing Enzymes, (Zakim, D. and D. A. Vessey, eds. 1985), John Wiley & Sons, Inc., New York, pp. 1-93. Several spectral based assays exist based on the reactivity or tendency of the resulting diol product to hydrogen bond (see, e.g., Wixtrom, supra, and Hammock. Anal. Biochem. 174:291-299 (1985) and Dietze, et al. Anal. Biochem. 216:176-187 (1994))."}, "rats [2]": {"test_system": "rats", "experiment": "Thermal withdrawal latency, intraplantar LPS inflammatory pain model and non-inflamed controls", "type": "in vivo, rat", "conditions": "for thermal withdrawal latency in the absence of inflammation: control rats, i.pl. saline"}, "[3]": {"experiment": "Brain, blood and plasma inhibitor levels, LC-ESI-MS/MS", "conditions": "AEPU dermal, TPAU systemic administration"}, "mouse sEH": {"biological_target": "T2, mouse sEH (Mus musculus, UniProt P34914)", "T2 sequence (P34914 1-554)": "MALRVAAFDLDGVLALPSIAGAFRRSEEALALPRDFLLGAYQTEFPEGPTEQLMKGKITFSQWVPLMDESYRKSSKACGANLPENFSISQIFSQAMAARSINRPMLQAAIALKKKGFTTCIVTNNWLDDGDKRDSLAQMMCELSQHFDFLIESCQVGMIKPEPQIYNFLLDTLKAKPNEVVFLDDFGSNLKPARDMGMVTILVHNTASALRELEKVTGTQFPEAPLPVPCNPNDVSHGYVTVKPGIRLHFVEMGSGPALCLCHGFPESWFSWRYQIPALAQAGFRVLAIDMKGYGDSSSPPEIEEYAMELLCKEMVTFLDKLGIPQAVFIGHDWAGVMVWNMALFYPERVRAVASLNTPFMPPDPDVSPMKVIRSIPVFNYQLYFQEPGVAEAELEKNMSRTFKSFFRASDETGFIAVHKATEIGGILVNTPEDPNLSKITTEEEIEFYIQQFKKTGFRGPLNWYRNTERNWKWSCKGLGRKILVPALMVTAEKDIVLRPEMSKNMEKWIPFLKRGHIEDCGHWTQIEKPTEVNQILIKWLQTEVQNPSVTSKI", "experiment": "biochemical"}, "StARD1 mRNA [4]": {"test_system": "StARD1 mRNA", "experiment": "StARD1 expression after rolipram and TPAU, qRT-PCR", "type": "in vivo, rat", "conditions": "rats", "description": "Briefly, RNA from whole spinal cord, brain and adrenal gland samples were extracted using a purelink Micro to Midi total RNA purification kit (Invitrogen, CA). The RNA samples were quantified by spectrophotometry and converted to cDNA using a high capacity cDNA reverse transcription kit from Applied Biosystems (CA, USA). Taq-man probe for StARD1 (Rn00580695_ml) was used according to manufacturer's instructions to quantify relative gene expression (Applied Biosystems CA, USA). Experiments were performed in triplicate with glyceraldehyde 3-phosphate dehydrogenase gene serving as the endogenous control. Mean fold expression values from corresponding vehicle treated animal tissues were used as calibrators.\nThese findings encouraged us to investigate the expression of StARD1 message as a marker of steroidogenic activity. […] Adrenal StARD1 from the same animals was also monitored as a marker of peripheral steroidogenesis."}, "rats [5]": {"test_system": "rats", "experiment": "Open field / motor activity", "type": "in vivo, rat", "conditions": "rolipram 0.1 and TPAU 10 mg/kg"}, "rats [6]": {"test_system": "rats", "experiment": "Intraplantar carrageenan inflammatory pain model, intrathecal sEHI", "type": "in vivo, rat", "conditions": "intrathecal 0.1-3 μg", "description": "The study was approved by UC Davis Animal Care and Use Committee. Male Sprague-Dawley rats weighing 250-350 g were obtained from Charles River Inc. Two models of inflammatory pain and one model of diabetic neuropathic pain were used to test the effects of sEHI. The main inflammatory pain model used involved intraplantar LPS (10 μg/animal) administration as described previously (Inceoglu B et al., Life Sci 79:2311-2319 (2006)). Briefly, following baseline thermal withdrawal latency and mechanical withdrawal threshold determination LPS (in saline) was administered into one hind paw and nociceptive thresholds were monitored over time. The other inflammatory pain model involved intraplantar carrageenan (1% in saline, 50 μl) administration and was only used when sEHI was administered into the spinal cord. Intrathecal catheters were implanted according to Yaksh and Rudy (Yaksh T L and Rudy T A, Physiol Behav 17(6):1031-1036 (1976)). Following baseline nociceptive response measurements carrageenan was administered into one hind paw and responses were monitored over time and after intraspinal sEHI administration. […] In experiments in which EETs, sEHI and cAMP analogue was administered intraspinally animals were maintained under deep anesthesia and therefore nociceptive thresholds were not determined."}, "StARD1 mRNA [7]": {"test_system": "StARD1 mRNA", "experiment": "StARD1 mRNA 30 min after intraspinal 8-Br cAMP, EETs, AEPU in non-inflamed rats", "type": "in vivo, rat", "conditions": "8-Br cAMP 100 μg, EETs 5 μg, AEPU 1 μg", "description": "To investigate the cooperation between cAMP and EETs in the spinal cord, a membrane permeable cAMP analogue, 8-Br cAMP (100 μg), was administered into the spinal cord by lumbar puncture (between L4-L5) and rapid (30 min.) expression of StARD1 mRNA in the spinal cord and the brain was quantified by qRT-PCR. In these experiments animals were maintained under deep anesthesia."}, "COX2 mRNA": {"test_system": "COX2 mRNA", "experiment": "Spinal COX2 mRNA after intraplantar LPS, qRT-PCR", "type": "in vivo, rat", "conditions": "rats", "description": "(§1) A purelink Micro to Midi total RNA purification kit (Invitrogen, CA) was used to extract RNA from whole spinal cord, adrenal gland and testis. For brain, the remaining caudal two thirds were sliced into two hemispheres from the midline and a coronal slice of 2 mm in thickness was taken for analysis. The RNA samples were quantified by spectrophotometry and converted to cDNA using a high capacity cDNA reverse transcription kit from Applied Biosystems (CA, USA). Taq-man probes for COX2 (Rn00568225_ml) StARD1 (Rn00580695_ml), ICER(Rn00569145_ml), Sst (Rn00561967_ml), sEH(Rn00576023_ml) genes were used according to manufacturer's instructions to quantify relative gene expression (Applied Biosystems). Experiments were performed in triplicate with GAPDH (glyceraldehyde 3-phosphate dehydrogenase message) serving as the endogenous control. Mean fold expression values from corresponding untreated animal tissues were used as calibrators."}, "StARD1 mRNA [8]": {"test_system": "StARD1 mRNA", "experiment": "StARD1 mRNA in LPS inflamed rats, qRT-PCR", "type": "in vivo, rat", "description": "as §1"}, "[9]": {"test_system": "circulating testosterone and progesterone", "experiment": "Circulating steroid hormone levels by RIA", "type": "in vivo, rat", "conditions": "rats"}, "[10]": {"test_system": "plasma oxylipins (EETs, DHETs, PGE2)", "experiment": "Plasma oxylipin analysis in LPS treated rats", "type": "in vivo, rat", "conditions": "LPS treated rats, two hours", "description": "Plasma was collected by cardiac puncture under deep anesthesia. Rats were anesthetized by isoflurane overdose and decapitated. Whole brains were immediately excised and flash frozen. […] Dorsal roots were excluded."}, "[11]": {"biological_target": "peripheral benzodiazepine receptor (PBR, TSPO) (Rattus norvegicus, UniProt P16257)", "experiment": "Displacement of [3H] PK11195 from TSPO (rat heart mitochondria, CEREP)", "conditions": "methyl ester forms"}},
  "data": [
    {"smiles": "CCCCCCCCCCCCNC(=O)NC12CC3CC(CC(C3)C1)C2", "note": "[ADU, N-Adamantyl-N′-dodecyl urea]", "values": [
      {"measurement": "metabolic stability", "setting": "[1]", "value": "metabolically stable"},
      {"measurement": "activity as inhibitor of sEH", "setting": "sEH", "value": "particularly high activity"}
    ]},
    {"smiles": "CC(=O)N1CCC(NC(=O)Nc2ccc(OC(F)(F)F)cc2)CC1", "note": "[TPAU]", "values": [
      {"measurement": "thermal withdrawal latency in the absence of inflammation", "setting": "rats [2]", "value": "no effect"},
      {"measurement": "loss of motor activity", "setting": "rats [2]; rats", "value": "No loss of motor activity"},
      {"measurement": "penetration into the brain", "setting": "[3]", "value": "efficiently penetrated into the brain"},
      {"measurement": "metabolic stability", "setting": "[1]", "value": "metabolically stable"},
      {"measurement": "oral availability and pharmacokinetics", "setting": "[1]", "value": "excellent oral availability and pharmacokinetics"},
      {"measurement": "IC50", "setting": "mouse sEH", "value": 97, "unit": "nM"},
      {"measurement": "decrease in adrenal gland StARD1 expression", "setting": "StARD1 mRNA [4]", "value": 30, "unit": "%"},
      {"measurement": "open field activity / motor function", "setting": "rats [5]", "value": "did not affect motor function"}
    ]},
    {"smiles": "CCOCCOCCOCCCCCNC(=O)NC12CC3CC(CC(C3)C1)C2", "note": "[AEPU, Adamantan-1-yl-3-{5-[2-(2-ethoxyethoxy)ethoxy]pentyl}urea]", "values": [
      {"measurement": "thermal withdrawal latency in the absence of inflammation", "setting": "rats [2]", "value": "no effect"},
      {"measurement": "LPS elicited thermal hyperalgesia (thermal withdrawal latency)", "setting": "rats [2]; rats, i.pl. LPS 10 μg", "value": "briefly increased"},
      {"measurement": "penetration into the brain", "setting": "[3]", "value": "efficiently penetrated into the brain"},
      {"measurement": "metabolism", "setting": "[1]", "value": "metabolized rapidly"},
      {"measurement": "carrageenan induced mechanical allodynia", "setting": "rats [6]", "value": "dose dependent decrease"},
      {"measurement": "carrageenan induced thermal hyperalgesia", "setting": "rats [6]", "value": "dose dependent decrease"},
      {"measurement": "spinal StARD1 expression", "setting": "StARD1 mRNA [7]", "value": "without effect"},
      {"measurement": "spinal COX2 message after LPS", "setting": "COX2 mRNA", "value": "significantly suppressed"},
      {"measurement": "adrenal gland StARD1 mRNA induced by LPS", "setting": "StARD1 mRNA [8]", "value": "reduced"},
      {"measurement": "brain StARD1 mRNA expression", "setting": "StARD1 mRNA [8]", "value": "two-fold increase"},
      {"measurement": "spinal StARD1 mRNA expression", "setting": "StARD1 mRNA [8]", "value": "sustained"},
      {"measurement": "testis StARD1 mRNA induced by LPS", "setting": "StARD1 mRNA [8]", "value": "not in testis"},
      {"measurement": "circulating / plasma progesterone level", "setting": "[9]", "value": "decreased"},
      {"measurement": "plasma testosterone level", "setting": "[9]; with or without LPS", "value": "did not alter"},
      {"measurement": "plasma DHET level", "setting": "[10]", "value": "decreased"},
      {"measurement": "plasma PGE2 level", "setting": "[10]", "value": "decreased"}
    ]},
    {"smiles": "CCCCC/C=C\\C/C=C\\CC1OC1C/C=C\\CCCC(=O)O", "note": "(stereo not drawn) [8,9-EET]", "values": [
      {"measurement": "competition with radioligand [3H] PK11195 at TSPO", "setting": "[11]", "value": "did not compete"}
    ]}
  ]
}
